From PubChem BioAssay AID328 (DTP/NCI, 2004)
Several values for one entry are separate records, joined by “and”; a condition that tells them apart may be missing. Equal entries are not always repeated. Toxic doses and inconclusive results are not listed.

System: BDF1 mice, P388 leukemia ip, median survival T/C
Experiment: NCI In Vivo Anticancer Drug Screen. Data for tumor model P388 Leukemia (intraperitoneal) in B6D2F1 (BDF1) mice
Settings: endpoint: median survival time, higher = longer survival
Method in brief: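 Steps: implant the tumour, treat one group with compound and another with vehicle, record survival, then divide treated by control.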

[1] = dose: 50.0 mg/kg/injection, schedule: Q01DX009 (ip), vehicle: saline with Tween-80
[2] = dose: 100.0 mg/kg/injection, schedule: Q01DX009 (ip), vehicle: saline with Tween-80
[3] = dose: 25.0 mg/kg/injection, schedule: Q01DX009 (ip), vehicle: saline with Tween-80
[4] = dose: 100.0 mg/kg/injection, schedule: Q04DX003 (ip), vehicle: saline with Tween-80
[5] = dose: 200.0 mg/kg/injection, schedule: Q04DX003 (ip), vehicle: saline with Tween-80
[6] = dose: 400.0 mg/kg/injection, schedule: Q04DX003 (ip), vehicle: saline with Tween-80
[7] = dose: 25.0 mg/kg/injection, schedule: Q04DX003 (ip), vehicle: saline with Tween-80
[8] = dose: 50.0 mg/kg/injection, schedule: Q04DX003 (ip), vehicle: saline with Tween-80
[9] = dose: 100.0 mg/kg/injection, schedule: Q04DX003 (ip), vehicle: saline
[10] = dose: 200.0 mg/kg/injection, schedule: Q04DX003 (ip), vehicle: saline
[11] = dose: 400.0 mg/kg/injection, schedule: Q01DX009 (ip), vehicle: saline with Tween-80
[12] = dose: 400.0 mg/kg/injection, schedule: Q04DX003 (ip), vehicle: saline
[13] = dose: 200.0 mg/kg/injection, schedule: Q01DX009 (ip), vehicle: saline with Tween-80
[14] = dose: 25.0 mg/kg/injection, schedule: Q01DX009 (ip), vehicle: saline
[15] = dose: 100.0 mg/kg/injection, schedule: Q01DX009 (ip), vehicle: saline

Structure (SMILES): COc1cccc(/C=C2\SC(=S)N(CCCN3CCOCC3)C2=O)c1OC
- T/C [1]: 91 % of control
- T/C [2]: 88 % of control

Structure (SMILES): CC1(C)OC(COS(C)(=O)=O)C(COS(C)(=O)=O)O1 (configuration not stated)
- T/C (dose: 100.0 mg/kg/injection, schedule: Q04DX002 (ip), vehicle: saline with Tween-80): 101 % of control
- T/C (dose: 200.0 mg/kg/injection, schedule: Q04DX002 (ip), vehicle: saline with Tween-80): 104 % of control
- T/C (dose: 400.0 mg/kg/injection, schedule: Q04DX002 (ip), vehicle: saline with Tween-80): 104 % of control

Structure (SMILES): NC(=O)NN=C1CCCCC1
- T/C (dose: 17.5 mg/kg/injection, schedule: Q01DX009 (ip), vehicle: Klucel (hydroxypropylcellulose) (HPC)): 90 % of control
- T/C (dose: 26.25 mg/kg/injection, schedule: Q04DX003 (ip), vehicle: Klucel (hydroxypropylcellulose) (HPC)): 100 % of control
- T/C (dose: 35.0 mg/kg/injection, schedule: Q01DX009 (ip), vehicle: Klucel (hydroxypropylcellulose) (HPC)): 122 % of control
- T/C (dose: 52.5 mg/kg/injection, schedule: Q04DX003 (ip), vehicle: Klucel (hydroxypropylcellulose) (HPC)): 100 % of control

Structure (SMILES): COc1cc2c(cc1O)C(=O)CCCC2
- T/C [3]: 97 % of control
- T/C [1]: 101 % of control and 120 % of control
- T/C (dose: 100.0 mg/kg/injection, schedule: Q01DX009 (ip), vehicle: Klucel (hydroxypropylcellulose) (HPC)): 103 % of control
- T/C [2]: 97 % of control
- T/C [4]: 100 % of control
- T/C (dose: 200.0 mg/kg/injection, schedule: Q01DX009 (ip), vehicle: Klucel (hydroxypropylcellulose) (HPC)): 103 % of control
- T/C [5]: 104 % of control
- T/C (dose: 400.0 mg/kg/injection, schedule: Q01DX009 (ip), vehicle: Klucel (hydroxypropylcellulose) (HPC)): 103 % of control
- T/C [6]: 95 % of control

Structure (SMILES): COC(=O)/C=C/CBr
- T/C (dose: 2.5 mg/kg/injection, schedule: Q01DX010 (ip), vehicle: saline): 110 % of control
- T/C (dose: 5.0 mg/kg/injection, schedule: Q01DX010 (ip), vehicle: saline): 110 % of control
- T/C (dose: 10.0 mg/kg/injection, schedule: Q01DX010 (ip), vehicle: saline): 110 % of control
- T/C (dose: 20.0 mg/kg/injection, schedule: Q01DX010 (ip), vehicle: saline): 115 % of control

Structure (SMILES): c1ccc([C@H]2CN3CCSC3=N2)cc1
- T/C (dose: 0.15 mg/kg/injection, schedule: Q01DX009 (ip), vehicle: saline): 100 % of control
- T/C (dose: 0.31 mg/kg/injection, schedule: Q01DX009 (ip), vehicle: saline): 100 % of control
- T/C (dose: 0.63 mg/kg/injection, schedule: Q01DX009 (ip), vehicle: saline): 100 % of control and 122 % of control
- T/C (dose: 1.25 mg/kg/injection, schedule: Q01DX009 (ip), vehicle: saline): 97 % of control and 104 % of control
- T/C (dose: 2.5 mg/kg/injection, schedule: Q01DX009 (ip), vehicle: saline): 99 % of control and 104 % of control
- T/C (dose: 5.0 mg/kg/injection, schedule: Q01DX009 (ip), vehicle: saline): 100 % of control
- T/C (dose: 10.0 mg/kg/injection, schedule: Q01DX009 (ip), vehicle: saline): 94 % of control and 100 % of control
- T/C (dose: 20.0 mg/kg/injection, schedule: Q01DX009 (ip), vehicle: saline): 94 % of control and 100 % of control

Structure (SMILES): ClCC[N+]12CC[N+](CCCl)(CC1)C2
- T/C (dose: 12.5 mg/kg/injection, schedule: Q01DX009 (ip), vehicle: saline with Tween-80): 103 % of control
- T/C [3]: 118 % of control and 116 % of control
- T/C [7]: 108 % of control
- T/C [8]: 93 % of control and 108 % of control
- T/C (dose: 50.0 mg/kg/injection, schedule: Q04DX003 (ip), vehicle: saline): 103 % of control
- T/C [2]: 150 % of control and 206 % of control and 168 % of control
- T/C [4]: 171 % of control
- T/C [9]: 122 % of control
- T/C [10]: 165 % of control
- T/C (dose: 264.0 mg/kg/injection, schedule: Q04DX003 (ip), vehicle: saline with Tween-80): 200 % of control
- T/C [11]: 112 % of control
- T/C (dose: 400.0 mg/kg/injection, schedule: Q01DX009 (ip), vehicle: saline): 178 % of control
- T/C [6]: 96 % of control
- T/C [12]: 244 % of control
- T/C (dose: 600.0 mg/kg/injection, schedule: Q04DX003 (ip), vehicle: saline with Tween-80): 95 % of control

Structure (SMILES): Nc1cc(N)c([N+](=O)[O-])cc1[N+](=O)[O-]
- T/C [2]: 90 % of control
- T/C [13]: 100 % of control
- T/C [11]: 104 % of control

Structure (SMILES): COC(=O)CCCC1=NC2=CC=CC3=NC(C)=NC(=N1)N23
- T/C [3]: 110 % of control
- T/C [2]: 99 % of control

Structure (SMILES): COC(=O)CNC(=O)C(CSCc1ccccc1)NC(=O)OCc1ccccc1 (configuration not stated)
- T/C (dose: 100.0 mg/kg/injection, schedule: Q04DX003 (ip), vehicle: Klucel (hydroxypropylcellulose) (HPC)): 95 % of control
- T/C (dose: 200.0 mg/kg/injection, schedule: Q04DX003 (ip), vehicle: Klucel (hydroxypropylcellulose) (HPC)): 100 % of control
- T/C (dose: 400.0 mg/kg/injection, schedule: Q04DX003 (ip), vehicle: Klucel (hydroxypropylcellulose) (HPC)): 90 % of control

Structure (SMILES): Cc1cc(Cl)c2ccccc2c1N
- T/C (dose: 44.0 mg/kg/injection, schedule: Q01DX009 (ip), vehicle: other): 100 % of control
- T/C (dose: 66.0 mg/kg/injection, schedule: Q01DX009 (ip), vehicle: other): 110 % of control
- T/C (dose: 100.0 mg/kg/injection, schedule: Q01DX009 (ip), vehicle: other): 115 % of control
- T/C (dose: 150.0 mg/kg/injection, schedule: Q01DX009 (ip), vehicle: other): 110 % of control

Structure (SMILES): C=C(C)c1c2ccccc2cc2cccc(Sc3ccccc3)c12
- T/C [2]: 100 % of control
- T/C [13]: 95 % of control
- T/C [11]: 100 % of control

Structure (SMILES): O=C1c2ccccc2C(O)(c2ccccc2)c2c(Cl)cccc21 (configuration not stated)
- T/C [1]: 104 % of control
- T/C [2]: 111 % of control
- T/C [13]: 95 % of control

Structure (SMILES): Cc1cccc(Br)[n+]1[O-]
- T/C [14]: 90 % of control
- T/C (dose: 25.0 mg/kg/injection, schedule: Q04DX003 (ip), vehicle: saline): 95 % of control
- T/C (dose: 50.0 mg/kg/injection, schedule: Q01DX001 (ip), vehicle: saline): 100 % of control
- T/C [15]: 95 % of control
- T/C [9]: 95 % of control
- T/C (dose: 200.0 mg/kg/injection, schedule: Q01DX001 (ip), vehicle: saline): 100 % of control

Structure (SMILES): CCCCCCCCCCCCCCCC(=O)OCCCCCCCCCCCCC
- T/C [7]: 100 % of control
- T/C [8]: 100 % of control
- T/C [4]: 105 % of control

Structure (SMILES): O=C(c1ccccc1)C1CCCCC1
- T/C (dose: 12.0 mg/kg/injection, schedule: Q04DX003 (ip), vehicle: Klucel (hydroxypropylcellulose) (HPC)): 104 % of control
- T/C (dose: 25.0 mg/kg/injection, schedule: Q04DX003 (ip), vehicle: Klucel (hydroxypropylcellulose) (HPC)): 109 % of control
- T/C (dose: 50.0 mg/kg/injection, schedule: Q04DX003 (ip), vehicle: Klucel (hydroxypropylcellulose) (HPC)): 100 % of control
- T/C [10]: 107 % of control
- T/C [12]: 107 % of control

Structure (SMILES): COc1cccc2c1C(=O)c1c(O)c3c(c(O)c1C2=O)C[C@@](O)(/C(C)=N/NC(=O)c1cccc([N+](=O)[O-])c1)C[C@@H]3OC1CC(N)C(O)C(C)O1 (some centres not stated)
- T/C (dose: 0.25 mg/kg/injection, schedule: Q01DX009 (ip), vehicle: water): 152 % of control
- T/C (dose: 0.5 mg/kg/injection, schedule: Q01DX009 (ip), vehicle: water): 163 % of control
- T/C (dose: 1.0 mg/kg/injection, schedule: Q01DX009 (ip), vehicle: water): 166 % of control and 191 % of control
- T/C (dose: 2.0 mg/kg/injection, schedule: Q01DX009 (ip), vehicle: water): 156 % of control and 214 % of control
- T/C (dose: 4.0 mg/kg/injection, schedule: Q01DX009 (ip), vehicle: water): 244 % of control and 184 % of control
- T/C (dose: 8.0 mg/kg/injection, schedule: Q01DX009 (ip), vehicle: water): 169 % of control

Structure (SMILES): CCS(=O)(=O)CC
- T/C (dose: 100.0 mg/kg/injection, schedule: Q04DX003 (ip), vehicle: saline sonified): 95 % of control
- T/C (dose: 200.0 mg/kg/injection, schedule: Q04DX003 (ip), vehicle: saline sonified): 100 % of control
- T/C (dose: 400.0 mg/kg/injection, schedule: Q04DX003 (ip), vehicle: saline sonified): 100 % of control

Structure (SMILES): C[N+](C)(C)Cc1ccccc1C[N+](C)(C)C
- T/C [14]: 116 % of control
- T/C (dose: 50.0 mg/kg/injection, schedule: Q01DX009 (ip), vehicle: saline): 112 % of control
- T/C [15]: 112 % of control

Structure (SMILES): CS(=O)(=O)CC(O)(c1ccccc1)c1ccccn1 (configuration not stated)
- T/C [1]: 90 % of control
- T/C [2]: 89 % of control
- T/C [13]: 89 % of control

Structure (SMILES): CCCCCCCC(=O)Oc1c(Cl)c(Cl)c(C#N)c(Cl)c1C#N
- T/C [1]: 119 % of control

Structure (SMILES): N#CCC(NC(=O)OCc1ccccc1)C(=O)OCc1ccccc1 (configuration not stated)
- T/C [3]: 100 % of control
- T/C [1]: 94 % of control
- T/C [8]: 96 % of control
- T/C [2]: 88 % of control
- T/C [4]: 105 % of control
- T/C [13]: 96 % of control
- T/C [5]: 94 % of control
- T/C [11]: 96 % of control
- T/C [6]: 105 % of control
